From ChEMBL document CHEMBL4219217, “Structure-activity relationship study of a series of caspase inhibitors containing γ-amino acid moiety for treatment of cholestatic liver disease” (Bioorg Med Chem Lett, 2018)
The source made the active and inactive calls. The calls are words filed in the database; no cut-off is given here.

Key:
[1] = target: T1, Caspase-3 (Homo sapiens, UniProt P42574); assay: Inhibition of Anti-Fas antibody-induced caspase-3 activity in human Jurkat E6-1 cells using Ac-DEVD-AMC substrate by fluorescence based assay; assay type: cell-based
T1 sequence (P42574 whole entry): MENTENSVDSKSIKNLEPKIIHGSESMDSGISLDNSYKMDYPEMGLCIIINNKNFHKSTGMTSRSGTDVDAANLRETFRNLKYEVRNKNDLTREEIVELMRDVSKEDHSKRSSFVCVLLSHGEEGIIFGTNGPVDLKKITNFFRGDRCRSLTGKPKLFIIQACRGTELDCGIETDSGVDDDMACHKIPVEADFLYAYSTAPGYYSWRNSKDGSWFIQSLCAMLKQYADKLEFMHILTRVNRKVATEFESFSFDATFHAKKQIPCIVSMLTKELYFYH

[2] = AUC in C57BL/6J mouse liver at 1 mg/kg, po after 0.5 to 6 hrs by LC-MS/MS method; assay type: ADME, organism-based; parameters: time lower 0.5 hr, dose 1 mg/kg, time upper 6 hr, route oral; details: in vivo
[3] = Cmax in C57BL/6J mouse at 10 mg/kg, po after 0.25 to 24 hrs by LC-MS/MS method; assay type: ADME, organism-based; parameters: dose 10 mg/kg, route oral; details: in vivo
[4] = tested on: Mus musculus; assay: AUC (0 to infinity) in C57BL/6J mouse at 1 mg/kg, iv after 0.25 to 24 hrs by LC-MS/MS method; assay type: ADME, organism-based; parameters: dose 1 mg/kg, time infinity, route intravenous; details: in vivo
[5] = tested on: Mus musculus; assay: (§1) AUC (0 to infinity) in C57BL/6J mouse at 10 mg/kg, po after 0.25 to 24 hrs by LC-MS/MS method; assay type: ADME, organism-based; parameters: dose 10 mg/kg, time infinity, route oral; details: in vivo
[6] = tested on: Rattus norvegicus; assay: Reduction in serum total bilirubin level in Sprague-Dawley rat model of alpha-naphthylisothiocyanate-induced cholestatic liver disease at 6 mg/kg administered intragastrically once daily for 1 week; assay type: functional, organism-based
[7] = tested on: Rattus norvegicus; assay: Reduction in serum direct bilirubin level in Sprague-Dawley rat model of alpha-naphthylisothiocyanate-induced cholestatic liver disease at 6 mg/kg administered intragastrically once daily for 1 week; assay type: functional, organism-based
[8] = tested on: Rattus norvegicus; assay: Reduction in serum indirect bilirubin level in Sprague-Dawley rat model of alpha-naphthylisothiocyanate-induced cholestatic liver disease at 6 mg/kg administered intragastrically once daily for 1 week; assay type: functional, organism-based
[9] = Stability in rat plasma assessed as compound remaining level at 100 uM incubated for 2 hrs by LC-MS/MS method; assay type: ADME, cell-free; details: for Stability: 2 h, 100 µM; for remaining at 2 h, 100 µM: read-out: Stability
[10] = Stability in mouse plasma assessed as compound remaining level at 100 uM incubated for 2 hrs by LC-MS/MS method; assay type: ADME, cell-free
[11] = as §1; assay type: ADME, organism-based; parameters: dose 10 mg/kg, time infinity, route oral; details: C57BL/6J, in vivo

Structure (SMILES): C[C@H](NC(=O)C(=O)Nc1ccccc1C(C)(C)C)C(=O)N[C@@H](CC(=O)O)C(=O)COc1c(F)c(F)cc(F)c1F [EMRICASAN]
- IC50 [1]: 6 nM
- AUC [2]: 2350 nmol·h/kg
- Cmax [3]: 227 nM
- AUC [4]: 0.446 µM·h
- AUC [5]: 0.197 µM·h

Structure (SMILES): O=C(O)C[C@H](NC(=O)C1CCN(C(=O)C2CCCC2)CC1)C(=O)COc1c(F)c(F)cc(F)c1F
- AUC [2]: 2219 nmol·h/kg
- Cmax [3]: 405 nM
- AUC [4]: 0.852 µM·h
- AUC [5]: 1.71 µM·h
- Activity [6]: Active
- Activity [7]: Active
- Activity [8]: Active

Structure (SMILES): O=C(O)C[C@H](NC(=O)C1CCN(C(=O)OC2CCCC2)CC1)C(=O)COc1c(F)c(F)cc(F)c1F
- Stability [9]: Stable
- Stability [10]: Stable

Structure (SMILES): O=C(O)C[C@H](NC(=O)C1CCN(C(=O)Oc2ccccc2Cl)CC1)C(=O)COc1c(F)c(F)cc(F)c1F
- Stability [9]: Unstable
- Stability [10]: Unstable

Structure (SMILES): CC(C)(C)c1ccccc1NC(=O)C(=O)N1CCC(C(=O)N[C@@H](CC(=O)O)C(=O)COc2c(F)c(F)cc(F)c2F)CC1
- remaining at 2 h, 100 µM [9]: 93%
- Cmax [3]: 1640 nM
- AUC(0-inf) [11]: 3.66 µM·h

Structure (SMILES): O=C(O)C[C@H](NC(=O)C1CCN(C(=O)c2cccs2)CC1)C(=O)COc1c(F)c(F)cc(F)c1F
- AUC [2]: 804 nmol·h/kg

Structure (SMILES): O=C(O)C[C@H](NC(=O)C1CCN(C(=O)C2CC(F)(F)C2)CC1)C(=O)COc1c(F)c(F)cc(F)c1F
- AUC [2]: 334 nmol·h/kg

Structure (SMILES): CC(C)(C)c1ccccc1NC(=O)C(=O)N1CCC[C@@H](C(=O)N[C@@H](CC(=O)O)C(=O)COc2c(F)c(F)cc(F)c2F)C1
- remaining at 2 h, 100 µM [9]: 67%
